In patent US8354400B2, “Benzoxazole compounds and methods of use” (Eisai R&D Co., Ltd., priority 2008, dated 2013):
Entries after “also recorded” stand apart in the source; their conditions may differ.

Tests used:
MRL/lpr mice = assay: MRL/lpr spontaneous lupus model, Experiment 2; assay type: in vivo; settings: for serum anti-dsDNA levels: MRL/lpr mice, Experiment 2, doses per Table 4
Protocol: In this SLE experiment, dosing, groups were as described in Table 4 below. Two dose levels of Compound 23 were compared to HCQ and cyclophosphamide (Cytoxan®). HCQ and cyclophosphamide are currently used in the treatment of cutaneous and systemic lupus, respectively. […] Sera were assayed at a 1:600 dilution in PBS. (Mouse Anti-dsDNA Total Ig Qualitative ELISA kits, Alpha Diagnostic International). Dosing was conducted by either oral (p.o.) or intraperitoneal (i.p.) administration.

[1] = test system: serum IL-6 after s.c. oligo CpG 1668 challenge; assay: In vivo short term CpG stimulation assay (serum IL-6); design: species or system mice; settings: Mus musculus, po, 2 h, mice, oral in water, 20 mg/kg, s.c. 30 micrograms oligo CpG 1668 within 90 minutes, serum two hours later; repeat assays separated by commas; read-out: Percent short-term IL-6 suppression
Protocol: Short Term CpG Stimulation Assay: Compounds identified as having potency in the HEK/TLR9 and splenocyte CpG 1668 assays described in Example 9, above, were tested in an in vivo short term CpG stimulation assay. Mice were orally administered compound in water, and challenged within 90 minutes by subcutaneous (s.c.) injection of 30 micrograms of oligo CpG 1668. Two hours later serum was taken and assayed for IL-6 using ELISA analysis. Results from assays repeated on different dates are set forth as multiple numbers separated by commas.

human TLR7 = target: T1, human TLR7 (Homo sapiens, UniProt Q9NYK1); assay: HEK/TLR7 activation assay (R848 stimulation); assay type: cell-based; settings: HEK cells transfected with human TLR7
T1 construct: expressed in transfected cells; host or cells: HEK cell line (HEK293, as in the primary assay)
T1 sequence (Q9NYK1 27-1049): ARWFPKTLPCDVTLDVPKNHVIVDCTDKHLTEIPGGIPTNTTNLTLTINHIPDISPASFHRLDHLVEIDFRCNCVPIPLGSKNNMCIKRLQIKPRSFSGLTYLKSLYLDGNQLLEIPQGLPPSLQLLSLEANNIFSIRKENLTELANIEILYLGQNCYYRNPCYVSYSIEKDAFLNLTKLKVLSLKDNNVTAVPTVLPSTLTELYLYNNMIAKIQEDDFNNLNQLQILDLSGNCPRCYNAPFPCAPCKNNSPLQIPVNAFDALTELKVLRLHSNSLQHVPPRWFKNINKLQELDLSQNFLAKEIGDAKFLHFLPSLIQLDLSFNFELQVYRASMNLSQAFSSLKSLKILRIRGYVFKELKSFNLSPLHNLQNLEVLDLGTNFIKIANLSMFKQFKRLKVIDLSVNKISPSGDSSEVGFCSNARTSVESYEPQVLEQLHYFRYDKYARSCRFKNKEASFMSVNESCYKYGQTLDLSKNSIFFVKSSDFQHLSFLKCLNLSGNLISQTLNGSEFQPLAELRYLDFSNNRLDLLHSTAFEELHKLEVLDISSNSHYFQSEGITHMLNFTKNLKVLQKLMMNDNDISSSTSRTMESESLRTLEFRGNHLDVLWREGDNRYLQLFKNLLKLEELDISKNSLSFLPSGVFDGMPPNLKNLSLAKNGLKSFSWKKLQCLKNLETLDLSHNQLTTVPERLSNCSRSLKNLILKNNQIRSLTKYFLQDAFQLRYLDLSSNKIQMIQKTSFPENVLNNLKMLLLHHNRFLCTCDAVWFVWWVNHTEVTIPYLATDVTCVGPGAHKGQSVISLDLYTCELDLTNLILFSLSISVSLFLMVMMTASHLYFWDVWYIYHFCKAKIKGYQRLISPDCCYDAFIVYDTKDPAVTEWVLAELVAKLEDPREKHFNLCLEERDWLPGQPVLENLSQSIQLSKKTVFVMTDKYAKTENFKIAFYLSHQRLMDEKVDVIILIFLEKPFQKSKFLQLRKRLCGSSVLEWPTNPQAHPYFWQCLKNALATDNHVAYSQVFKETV
Protocol: (1) HEK/TLR7Activation Assay: The same compounds were tested in the same way as the primary assay with the following differences. The plasmid used to transfect the HEK cell line encoded for human TLR7 instead of TLR9, and R848 was used to stimulate the cells instead of Oligo CpG 2006.

human TLR9 = target: T2, human TLR9 (Homo sapiens, UniProt Q9NR96); assay: Primary assay: HEK/TLR9 activation (NF-kB luciferase reporter, Oligo CpG 2006 stimulation); assay type: cell-based; settings: HEK293 transfected with human TLR9 and NF-kB luciferase; compound 30 min before Oligo CpG 2006; overnight; read-out: HEK/TLR9 IC50
T2 construct: expressed in transfected cells; host or cells: HEK293 (ATCC No. CRP-1573 [sic])
T2 sequence (Q9NR96 26-1032): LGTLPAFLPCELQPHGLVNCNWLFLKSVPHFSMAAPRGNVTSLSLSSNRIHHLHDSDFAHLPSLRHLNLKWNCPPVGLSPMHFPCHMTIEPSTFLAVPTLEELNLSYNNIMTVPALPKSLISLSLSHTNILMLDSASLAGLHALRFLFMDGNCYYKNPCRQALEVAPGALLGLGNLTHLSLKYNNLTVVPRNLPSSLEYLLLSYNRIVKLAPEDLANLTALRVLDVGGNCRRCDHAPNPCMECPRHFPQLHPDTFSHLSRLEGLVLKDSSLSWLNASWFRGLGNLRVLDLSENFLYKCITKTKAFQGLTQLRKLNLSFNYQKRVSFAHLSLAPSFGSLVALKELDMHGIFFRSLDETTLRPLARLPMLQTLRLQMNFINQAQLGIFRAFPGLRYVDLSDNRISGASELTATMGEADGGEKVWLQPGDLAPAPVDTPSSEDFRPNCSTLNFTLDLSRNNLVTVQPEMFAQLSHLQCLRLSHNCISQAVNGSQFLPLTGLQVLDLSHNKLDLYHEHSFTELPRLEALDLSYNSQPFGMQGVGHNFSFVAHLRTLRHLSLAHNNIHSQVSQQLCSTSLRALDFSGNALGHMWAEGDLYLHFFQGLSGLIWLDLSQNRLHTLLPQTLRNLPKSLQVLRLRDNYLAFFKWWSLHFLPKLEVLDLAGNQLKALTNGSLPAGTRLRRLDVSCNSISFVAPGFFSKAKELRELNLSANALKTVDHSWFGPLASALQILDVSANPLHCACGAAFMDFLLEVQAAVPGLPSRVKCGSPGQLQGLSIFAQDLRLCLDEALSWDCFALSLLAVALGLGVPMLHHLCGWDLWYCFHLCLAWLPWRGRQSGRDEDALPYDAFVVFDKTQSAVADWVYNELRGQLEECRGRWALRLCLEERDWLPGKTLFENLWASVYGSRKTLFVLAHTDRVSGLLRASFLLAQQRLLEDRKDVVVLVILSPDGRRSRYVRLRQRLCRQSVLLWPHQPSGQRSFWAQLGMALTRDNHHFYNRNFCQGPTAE
Source text: A. Primary Assay. The primary assay involved transfecting human embryonic kidney epithelial (HEK) cells with TLR9. More specifically, HEK293 […] cells (ATCC No. CRP-1573, American Type Culture Collection, Manassas, Va.) were transfected with pcDNA3.1D/V5-His-TOPO® plasmid (Invitrogen, Carlsbad, Calif.) encoding human TLR9 (directly inserted as a Tag polymerase-amplified PCR product) and firefly luciferase under the control of three NF-kB binding sites contained in the E-selectin-1 promoter, which was cloned into a pGL3-Enhancer Vector (Promega Corp, Madison, Wis.). Each compound was added to cells 30 min. before stimulation with Oligo CpG 2006, a synthetic phosphorothioate oligonucleotide (Hartmann et al., J Immunol. 164:1617-24 (2000)), with nucleotide sequence 5′-TCGTCGTTTTGTCGTTTTGTCGTT-3′ (SEQ ID NO:1). The cells were incubated overnight at 37° C. The luciferase substrate Steady-Glo® (Promega) was added to the wells, and luminescence was measured to determine the extent of TLR9-driven gene activation. The luminescence data was used to calculate an IC50 for each sample. The IC50 is defined as the concentration of compound that suppresses the luminescence to 50% of that observed in the absence of compound, in other words, with full stimulation.

[2] = test system: mouse spleen IL-6 production in response to Oligo CpG 1668; assay: Splenocyte CpG 1668 assay (IL-6 ELISA); assay type: cell-based; settings: mouse splenocytes, Oligo CpG 1668, 72 hrs
Protocol: (2) Splenocyte CpG 1668 Assay: Some of the compounds tested in the primary assay were also assayed for suppression of mouse spleen IL-6 production in response to stimulation with Oligo CpG 1668, a synthetic phosphorothioate oligonucleotide (Krieg et al. Nature. 374:546-9 (1995)), with nucleotide sequence [NT] (SEQ ID NO:2). Each compound was added to dissociated splenocytes before addition of stimulatory oligonucleotide. Cells were stimulated in culture for 72 hrs and the supernatant was removed for ELISA analysis of IL-6 level. Here the IC50 is defined as the concentration of compound that suppresses cytokine production to 50% of that observed in the absence of compound, i.e., full stimulation.

[3] = test system: dissociated mouse splenocytes; assay: Spleen CellTiter-Glo viability assay; assay type: cell-based; settings: Splenocyte, 72 hours, viability (ATP)
Protocol: (3) Spleen CT Glo Assay: To determine if compounds had adverse effects on living cells, dissociated mouse splenocytes were incubated with some of the compounds for 72 hours. At the end of the incubation Celliter-Glo™ reagent (Promega Corporation, Madison, Wis.) was added and luminescence was read per manufacturer's instructions. This reagent measures ATP as an indication of cell metabolism. Dead cells will not produce signal. IC50 is defined as the concentration of compound that suppresses viability to 50% of that observed in the absence of compound. The few compounds that measurably affected viability did so at concentrations far above those that affected cytokine release in response to TLR9 stimulation.

| SMILES | serum anti-dsDNA levels (MRL/lpr mice) | inhibition in vivo at 20 mg/kg [1] [%] | IC50 (human TLR7) [nM] | IC50 (human TLR9) [nM] | IC50 [2] [nM] | IC50 [3] [nM] | difference in serum anti-dsDNA vs. vehicle by ANOVA (MRL/lpr mice; 8 and 12 week dosing points) |
| --- | --- | --- | --- | --- | --- | --- | --- |
| CCN(CCO)CCCC(C)Nc1ccnc2cc(Cl)ccc12 (centres unmarked) [hydroxychloroquine] | no detectable effect | – | – | – | – | – | – |
| CN(C)CCCOc1ccc2nc(-c3ccc(OCCCN(C)CCCN(C)C)cc3)oc2c1 [Compound 34] | – | 26 | 800 | 4 | – | – | – |
| CN(C)CCCOc1ccc2nc(-c3ccc(OCCCN(C)CCOCCOCCN(C)C)cc3)oc2c1 [Compound 35] | – | 38 | 1400 | 29 | 40 | – | – |
| COC[C@H]1CCCN1CCCOc1ccc(-c2nc3ccc(OCCCN4CCC[C@@H]4COC)cc3o2)cc1 [Compound 26] | – | 81 | – | 12.4 | 42 | > 10000 | – |
| O=P1(N(CCCl)CCCl)NCCCO1 (centres unmarked) [Cyclophosphamide, cyclophosphamide] | consistent suppression; also recorded: suppressed anti-dsDNA | – | – | – | – | – | statistically significant |
